Earlier results in patent publication US7935665B2, “Non-corrosive cleaning compositions for removing etch residues” (Fujifilm Electronic Materials U.S.A., Inc., priority 2002, dated 2011).

Details: of the acid in the formulation

| SMILES | PKa2 | pKa1 |
| --- | --- | --- |
| O=C(O)CC(O)C(=O)O (racemic) [DL-malic acid] | 5.1 | 3.48 |
| O=C(O)[C@H](O)[C@@H](O)[C@H](O)[C@H](O)CO [D-gluconic acid] |  | 3.86 |
